The test relates to Saccharomyces cerevisiae ABC16-Green Monster. As to conditions: 18 h; 30 °C; YPD. Put shortly: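 IC50 values come from GraphPad Prism fits of log(inhibitor) versus response, with variable slope, applied to background-subtracted optical density. The assay used 96-well plates holding 200 µl per well of log-phase drug-sensitive S. cerevisiae ABC16-Green Monster in YPD. Compound was added as eight 1:2 dilutions spanning final concentrations of 0.1–150 μM, in biological duplicate, and plates were kept at 30 °C for 18 h, with OD600 measured at 0 h and 18 h.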

The results in this text go back to the supplement of paper PMC8837787.

Structures can show the parent of a compound that is named as a salt.

Compound `CC(C=CC(=O)NO)=CC(C)C(=O)c1ccc(N(C)C)cc1` (configuration not stated) [Trichostatin A] came in with an IC50 growth inhibition of 50.6 µM. Then `CS(=O)(=O)CCNCc1ccc(-c2ccc3ncnc(Nc4ccc(OCc5cccc(F)c5)c(Cl)c4)c3c2)o1` [lapatinib], with 5.96 µM; and `CN(C)c1ccc(C(O)(c2ccc(N(C)C)cc2)c2ccc(N(C)C)cc2)cc1`, with 0.317 µM; and `Cc1ccc(Nc2nc(N)nc(CN(C)Cc3nc(=O)c4ccccc4[nH]3)n2)cc1`, with 32.3 µM. `CNS(=O)(=O)c1ccc(C(=O)Nc2ccc(Nc3ccccc3)cc2)o1` displayed an IC50 growth inhibition of 92.5 µM. Then `CC(C)CC(NC(=O)C(Cc1ccccc1)NC(=O)c1cnccn1)B(O)O` (configuration not stated) [Bortezomib], with 46.2 µM. The value for `Cc1ccc2nc(-c3ccc(N(C)C)cc3)[nH]c2c1` was 11.8 µM; that for `O[C@@H](c1cc(C(F)(F)F)nc2c(C(F)(F)F)cccc12)[C@H]1CCCCN1` was 45.6 µM; that for `CC(C)/N=c1\cc2n(-c3ccc(Cl)cc3)c3ccccc3nc-2cc1Nc1ccc(Cl)cc1` [Clofazimine] was 5.81 µM. For the compound `CCC(=O)NC(c1ccccc1Cl)c1cc(Cl)c2cccnc2c1O` (configuration not stated) [GNF-Pf-5038], the IC50 growth inhibition worked out at 6.51 µM.

Consider `Cn1ncc2c(N3CCOCC3)nc(NCCc3c[nH]c4ccccc34)nc21`, for which the IC50 growth inhibition is 69.3 µM. As for `C=CCc1ccc(O)c(-c2ccc(O)c(CC=C)c2)c1` [Honokiol], the IC50 growth inhibition worked out at 13.2 µM. In turn, `Cc1nc(-c2ccccn2)nc(N2CCC(Cc3ccccc3)C2)c1Cl` (configuration not stated) returned an IC50 growth inhibition of 21 µM. For the compound `O=C(C(Cc1c[nH]c2ccccc12)NS(=O)(=O)c1ccc(Cl)cc1)N1CCCCC1` (configuration not stated), the IC50 growth inhibition came out at 42.4 µM. Take `CN(CC=CC#CC(C)(C)C)Cc1cccc2ccccc12.Cl` [Terbinafine]: the IC50 growth inhibition was determined as 76.9 µM.

Turning to `COc1ccc(C2c3ccc4ccccc4c3Oc3ncn(CCCN(C)C)c(=N)c32)cc1` (configuration not stated), the IC50 growth inhibition came out at 28.9 µM. The compound `Cc1[nH]c2ccccc2c1C(c1cccs1)N1CCN(C)CC1` (configuration not stated) came in with an IC50 growth inhibition of 35.9 µM. Then `O=C(c1cccs1)N1CCN(c2ccc([N+](=O)[O-])c(NC3CC3)c2)CC1` [GNF-Pf-3455], with more than 150 µM. `O=C1CCc2ccc(OCCCCN3CCN(c4cccc(Cl)c4Cl)CC3)cc2N1` [Aripiprazole] displayed an IC50 growth inhibition of 9.31 µM. Consider `CN(C)C(=N)N=C(N)N` [Metformin], for which the IC50 growth inhibition was more than 75 µM. Regarding `O=C(COc1cccc(F)c1)Nc1nc(-c2ccccn2)cs1`, the IC50 growth inhibition worked out at 35.1 µM.

`COc1cc2c(c(OC)c1OC)-c1ccc(OC)c(=O)cc1C(NC(C)=O)CC2` (configuration not stated) [Colchicine] displayed an IC50 growth inhibition of more than 75 µM. Then `CC1(C)c2nc(-c3ccc(F)cc3)c(Nc3ccc(Cl)cc3)n2CCN1C(=O)CN` [GNF179], with 38 µM; and `CNC(=O)c1nn(C)c2c1C(C)(C)Cc1cnc(Nc3ccc(N4CCN(C)CC4)cc3)nc1-2` [milciclib maleate], with 84.1 µM. `COC(=O)C1=C(C)NC(C)=C(C(=O)OC(C)C)C1c1cccc2nonc12` (configuration not stated) [Israpidine] gave an IC50 growth inhibition of more than 150 µM.

`COc1ccccc1NC(=O)c1ccc(NC(=O)Cn2ncc(Cl)c(Cl)c2=O)cc1` showed an IC50 growth inhibition of 0.238 µM. Then `CN(C)c1oc(-c2ccc(Cl)cc2Cl)nc1[P+](c1ccccc1)(c1ccccc1)c1ccccc1` [GNF-Pf-2545], with 4.53 µM; and `Cc1cc(C)nc(-n2nc(C)cc2Nc2ccccc2)n1`, with 42.1 µM; and `CN1CCN(CCCN2c3ccccc3Sc3ccc(Cl)cc32)CC1` [Prochlorperazine], with 28.6 µM. Consider `NC(=O)N1CCC(CC(=O)N2CCC([C@H]3c4ncc(Br)cc4CCc4cc(Cl)cc(Br)c43)CC2)CC1` [Lonarfanib], for which the IC50 growth inhibition worked out at 20.4 µM.

Compound `COc1ccc2nc(S(=O)Cc3ncc(C)c(OC)c3C)[nH]c2c1` (configuration not stated) [Omeprazole] came in with an IC50 growth inhibition of more than 75 µM.

Consider `CC(=O)OCC1OC([S-])C(OC(C)=O)C(OC(C)=O)C1OC(C)=O.CCP(CC)CC` (configuration not stated) [Auranofin], for which the IC50 growth inhibition turned out to be 27.4 µM. The value for `O=C(Nc1nc(-c2ccccn2)cs1)c1ccccc1Br` was 8.35 µM; that for `CCCCCc1nnc(NC(=O)c2nccnc2N)s1` was 74.2 µM; that for `Cc1nc2ncnn2c(N2CCc3ccccc3C2)c1Cl` was 84.8 µM. The value for `c1ccc(-c2cn3nc(N4CCN(Cc5cn6ccccc6n5)CC4)sc3n2)cc1` was 50.8 µM; that for `Cc1cc(C(=O)Cn2nnc3ccccc3c2=O)c(C)n1-c1ccccc1F` was 20.5 µM; that for `O=c1c(Cl)c(Cl)cnn1-c1nc2ccccc2[nH]1` was 13.2 µM. `COCC1OC(=O)c2coc3c2C1(C)C1=C(C3=O)C2CCC(=O)C2(C)CC1OC(C)=O` (configuration not stated) [Wortmannin]: the IC50 growth inhibition came to 27.7 µM.

`C=CCC1C=C(C)CC(C)CC(OC)C2OC(O)(C(=O)C(=O)N3CCCCC3C(=O)OC(C(C)=CC3CCC(O)C(OC)C3)C(C)C(O)CC1=O)C(C)CC2OC` (configuration not stated) [Tacrolimus/FK-506] came in with an IC50 growth inhibition of more than 75 µM. Take `CC1(C)OB(O)c2cc(NC(=O)c3ccc(-n4cccn4)cc3Cl)ccc21` [AN7973]: the IC50 growth inhibition is 0.355 µM.

On to `CC1COC(Cn2cncn2)(c2ccc(Oc3ccc(Cl)cc3)cc2Cl)O1` (configuration not stated) [Difenoconazole], for which the IC50 growth inhibition came to 3.17 µM. Then `CCCOC(=O)C1=C(C)NC2=C(C(=O)CC(c3ccc(OC)c(OC)c3)C2)C1c1ccc(Cl)cc1Cl` (configuration not stated) [GNF-Pf-5672], with 5.08 µM; and `FC(F)(F)c1cccc(Nc2nc3ccccc3nc2Nc2cccc(C(F)(F)F)c2)c1`, with 1.6 µM; and `CC1(C)C2CCC(C2)C1(C)NC(=S)NN=Cc1ccccn1` (configuration not stated) [GNF-Pf-5458], with 3.1 µM. On to `Cc1cc(C)n(-c2ccc3c(Cl)cc(Cl)c(O)c3n2)n1`, for which the IC50 growth inhibition was determined as 71.3 µM. Compound `O=C(Nc1ccc([N+](=O)[O-])cc1Cl)c1cc(Cl)ccc1O` [Niclosamide] yielded an IC50 growth inhibition of 1.53 µM. The value for `C=C1[C@@H](C)[C@H]2[C@H](Cc3ccccc3)NC(=O)[C@]23OC(=O)/C=C/[C@H](O)CCC[C@@H](C)C/C=C/[C@H]3[C@@H]1O` [Cytochalasin B] was more than 75 µM; that for `Cc1cc(C(=O)NCCSc2ccccc2)c(C)n1C(C)C` was 60.5 µM. The value for `CC(=O)NCC1CN(c2ccc(-c3ccc(CNCc4cn[nH]n4)cc3)c(F)c2)C(=O)O1` (configuration not stated) [Radezolid] was more than 75 µM. Then `Cc1cccc(-n2ncc3c(=O)[nH]c(-n4nc(C)cc4NC(=O)c4cc5ccccc5o4)nc32)c1`, with 7.06 µM. For the compound `CC[C@H]1OC(=O)[C@H](C)[C@@H](O[C@H]2C[C@@](C)(OC)[C@@H](O)[C@H](C)O2)[C@H](C)[C@@H](O[C@@H]2O[C@H](C)C[C@H](N(C)C)[C@H]2O)[C@](C)(O)C[C@@H](C)C(=O)[C@H](C)[C@@H](O)[C@]1(C)O` [Erythromycin], the IC50 growth inhibition is more than 75 µM. Consider `Cn1ccnc1CNCCS(=O)(=O)c1cccc(Nc2ccc(-c3cccc(F)c3)cn2)c1`, for which the IC50 growth inhibition stood at 50.5 µM.

Consider `CON=C(C(=O)OC)c1ccccc1CON=C(C)c1cccc(C(F)(F)F)c1` [Trifloxystrobin], for which the IC50 growth inhibition is more than 75 µM. In turn, `N#CC(C#N)=NNc1cc(Cl)cc(Cl)c1` displayed an IC50 growth inhibition of 20.6 µM.

`CCCC(=O)NC(c1ccc(Cl)cc1)c1ccc2cccnc2c1O` (configuration not stated) [GNF-Pf-3257]: the IC50 growth inhibition is 55.9 µM. With `COc1ccc(/C=C/c2ccc3c(Cl)cc(Cl)c(O)c3n2)cc1`, the IC50 growth inhibition came to 22.3 µM. The value for `CN1C=C/C(=C/c2ccc3ccccc3[n+]2C)c2ccccc21` was 51.4 µM; that for `CC(C)Cn1c2c(c(O)c(C(=O)Nc3ncccc3O)c1=O)CCCC2` [CBR572] was 46.9 µM. The value for `C[C@H]1Cc2c([nH]c3cc(Cl)c(F)cc23)[C@@]2(N1)C(=O)Nc1ccc(Cl)cc12` [KAE609] was 7.65 µM; that for `Cc1ccc(Cc2c(C)nn(-c3nc4ccccc4[nH]3)c2O)cc1` [CBR868] was 5.39 µM. Regarding `Br.Cc1ccnc(Nc2nc(-c3ccccn3)cs2)c1` [GNF-Pf-4739], the IC50 growth inhibition worked out at 4.6 µM.

In the case of `Cc1nn(C(C)(C)C)c(C)c1/C=N/OC(=O)Nc1ccc(Cl)cc1`, the IC50 growth inhibition is 39.1 µM.

`COC(=O)c1ccc(C(=O)OC)c(N2C(=O)C=CC2=O)c1`: the IC50 growth inhibition was determined as 67.7 µM. With `CN(C)CCNc1nc2sc3c(c2c(=O)n1Cc1ccco1)CCCCC3`, the IC50 growth inhibition turned out to be 32.5 µM.

In the case of `COc1cc(C2c3cc4c(cc3C(OC3OC5COC(C)OC5C(O)C3O)C3COC(=O)C23)OCO4)cc(OC)c1O` (configuration not stated) [Etoposide], the IC50 growth inhibition was 23.6 µM.

Regarding `CC1=Nn2cc(-c3ccccc3)nc2SC1c1ccccc1` (configuration not stated), the IC50 growth inhibition is 64.2 µM.

`O=C1c2ccccc2C2=Nc3ccccc3SC(c3ccccc3F)C12` (configuration not stated) [GNF-Pf-3582] returned an IC50 growth inhibition of 5.87 µM. Compound `COC1=C2CC(C)CC(OC)C(O)C(C)C=C(C)C(OC(N)=O)C(OC)C=CC=C(C)C(=O)NC(=CC1=O)C2=O` (configuration not stated) [Geldanamycin] had an IC50 growth inhibition of more than 75 µM. Then `Cc1cc(NS(=O)(=O)c2ccc(Nc3nc(-c4ccc(Cl)c(Cl)c4)cs3)cc2)no1` [CBR410], with 4.87 µM; and `CCOC(=O)c1c(NC(=O)CNCc2ccccn2)sc(CC)c1C`, with 47.8 µM; and `COC(=O)Nc1nc2cc(C(=O)c3ccccc3)ccc2[nH]1`, with 58.4 µM.
